According to patent US5955431A, “Mast cell protease peptide inhibitors” (Brigham and Women's Hospital, Inc., priority 1998, dated 1999):
Where a SMILES comes first, the peptide text is derived from it. The star is where a group is joined. pNA = O=[N+]([O-])c1ccc(N*)cc1

Legend:
recombinant mMCP-6-FLAG = biological target: T1, recombinant mMCP-6-FLAG (Mus musculus, UniProt P21845); test: spectrophotometric cleavage of trypsin-susceptible p-nitroanilide substrates by EK-activated mMCP-6-FLAG; type: biochemical
T1 construct: endogenous pro-peptide followed by EK-susceptible peptide (Asp-Asp-Asp-Asp-Lys) (N, cleaved yes); made in house; host or cells: baculovirus; Spodoptera frugiperda 9 for virus, Trichoplusia ni High Five insect cells for expression
T1 sequence (P21845 32-276): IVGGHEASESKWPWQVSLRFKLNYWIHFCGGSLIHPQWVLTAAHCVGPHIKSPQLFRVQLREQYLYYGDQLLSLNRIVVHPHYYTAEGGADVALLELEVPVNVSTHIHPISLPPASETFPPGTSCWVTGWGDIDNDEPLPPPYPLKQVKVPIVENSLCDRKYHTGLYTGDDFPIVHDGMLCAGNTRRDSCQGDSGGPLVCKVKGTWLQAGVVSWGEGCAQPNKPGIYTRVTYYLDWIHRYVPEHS
Description: Purified pro-EK-mMCP-6-FLAG (~100 μg in 100 μl) was separately mixed with 100 μl of a pH 5.2 buffer consisting of 50 mM sodium acetate and 5 mM calcium chloride. One μl of a solution containing 550 U of calf intestine EK (Biozyme) was added to each, and the mixture was incubated at 37° C. generally for 3 h to allow EK to activate the zymogen in the absence of heparin. The spectrophotometric method of Svendsen and coworkers (Throm. Res. 1972, 1:267-278) was used to determine whether or not mMCP-6-FLAG is enzymatically active. Generally, 1-μl samples of each activation reaction were placed in 1 ml of a pH 7.4 buffer containing 25 mM sodium phosphate, 1 mM EDTA, and 50 μg of tosyl-Gly-Pro-Lys-p-nitroanilide. The change in optical density at 405 nm was then determined after a 3-min incubation at room temperature. The ability of recombinant mMCP-6-FLAG to cleave the trypsin-susceptible substrates tosyl-Gly-Pro-Arg-p-nitroanilide, benzoyl-Ile-Glu-Gly-Arg-p-nitroanilide, benzoyl-Pro-Phe-Arg-p-nitroanilide, and acetyl-Ile-Glu-Ala-Arg-p-nitroanilide were also evaluated.

recombinant mMCP-7-FLAG = biological target: T2, recombinant mMCP-7-FLAG (Mus musculus, UniProt Q02844); test: cleavage of p-nitroanilide substrate by mMCP-7-FLAG; type: biochemical; conditions: in vitro
T2 construct: made in house; host or cells: insect cells (described in earlier work of the same group)

mouse fibronectin = test: in vitro degradation of fibronectin by recombinant tryptases; type: biochemical
Description: In Vitro Degradation of Fibronectin by Recombinant mMCP-6-FLAG--Five μg of purified mouse fibronectin (Alexis) was suspended in 1 mM EDTA and 25 mM sodium phosphate, pH 7.4, containing 0.01 U EK, 0.5 μg recombinant pro-EK-mMCP-6-FLAG, 0.5 μg recombinant mMCP-6-FLAG (activated with 0.01 U EK), or 0.5 μg recombinant mMCP-7FLAG (activated with 0.01 U EK). After an incubated for various lengths of times, the resulting digests were subjected to SDS-PAGE. In one experiment, the N-terminal amino acid sequences; of the major fibronectin fragments in the mMCP-FLAG digest were determined.

neutrophils = test: emigration of neutrophils into the peritoneal cavity after injection of tryptase; type: in vivo, BALB/c mice
Source text: mMCP-6-FLAG-Induced Emigration of Neutrophils Into the Peritoneal Cavity and mMCP-6-Induced Growth of Fibroblasts and their Adhesion to Fibronectin--This experiment is discussed below.
mMCP-6-Induced Emigration of Neutrophils Into the Peritoneal Cavity of BALB/c Mice--The mast cells that reside in the peritoneal cavity of BALB/c mice express mMCP-6 but not mMCP-7 (Stevens et al., Proc. Natl. Acad. Sci. USA 1994, 91:128-132). […] Thus, the direct or indirect chemotaxis activity of mMCP-6 is relatively neutrophil specific. It also appears that tryptase treatment results in a relatively persistent recruitment of neutrophils into the peritoneal cavity.

[1] = system: Swiss albino mouse skin-derived 3T3 fibroblasts; test: adhesion and growth of fibroblasts on fibronectin-coated culture dishes; type: cell-based; conditions: for adhesion/shape of fibroblasts on fibronectin-coated dishes: 15 min at 37° C.
Description: However, these cells will become less adhesive and divide in vitro when they are trypsin treated. To determine if mMCP-6-FLAG could specifically alter the growth and/or adhesion of these cells, the fibroblasts were allowed to attach to replicate fibronectin-coated culture dishes and then were incubated for 15 min at 37° C. with buffer alone or buffer containing either pro-EK-mMCP-6-FLAG, mMCP-6-FLAG, mMCP-7-FLAG, or trypsin. […] SDS-PAGE/immunoblot analysis of the supernatants from the result cultures confirmed that fibronectin was degraded in the mMCP-6-FLAG-treated cultures but not in the pro-EK-mMCP-6-FLAG or mMCP-7-FLAG treated cultures.

T2 sequence (Q02844 29-273): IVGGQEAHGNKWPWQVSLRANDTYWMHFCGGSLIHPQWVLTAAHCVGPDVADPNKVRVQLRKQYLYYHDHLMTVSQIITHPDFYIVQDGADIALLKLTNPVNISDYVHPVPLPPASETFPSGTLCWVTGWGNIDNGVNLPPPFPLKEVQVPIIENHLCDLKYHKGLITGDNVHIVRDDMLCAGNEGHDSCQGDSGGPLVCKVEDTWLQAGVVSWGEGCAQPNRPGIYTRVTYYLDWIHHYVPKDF

CC[C@H](C)[C@H](NC(C)=O)C(=O)N[C@@H](CCC(=O)O)C(=O)N[C@@H](C)C(=O)N[C@@H](CCCN=C(N)N)C(=O)Nc1ccc([N+](=O)[O-])cc1 [acetyl-Ile-Glu-Ala-Arg-p-nitroanilide] (Ac-IEAR-pNA)
cleavage of substrate by mMCP-6-FLAG (recombinant mMCP-6-FLAG; in the presence or absence of heparin): does not effectively cleave
cleavage of substrate by mMCP-7-FLAG compared with mMCP-6-FLAG (recombinant mMCP-7-FLAG): much better than mMCP-6-FLAG

mMCP-7-FLAG: EK-activated recombinant mouse mast cell protease 7 (tryptase) with FLAG peptide
cleavage of fibronectin in vitro (mouse fibronectin; SDS-PAGE of digests): not
neutrophil chemotaxis activity in the in vivo assay (neutrophils; enzymatically active tryptase, peritoneal cavity): very little, if any
contact inhibition of treated fibroblasts [1]: do not lose their contact inhibition
rate of proliferation of treated fibroblasts [1]: do not increase their rate of proliferation
adhesion/shape of fibroblasts on fibronectin-coated dishes [1]: continued to adhere

B1: mMCP-6-FLAG: EK-activated recombinant mouse mast cell protease 6 (tryptase) with the FLAG peptide attached to its C-terminus (protein, UniProt P21845 32-276, looked up)
Tryptase beta-2: T1 sequence (P21845 32-276)
modifications: C-terminal FLAG tag
pH of optimal enzymatic activity (recombinant mMCP-6-FLAG; recombinant, EK-activated): ~7.4
number of fibronectin fragments obtained (mouse fibronectin; 60-min incubation, tryptase bound to heparin): 2 fragments
persistence of induced neutrophilia (neutrophils; kinetic experiments, peritoneal cavity): at least 3 days
influx of neutrophils in the peritoneal cavity (neutrophils; six to 36 h after intraperitoneal administration): pronounced influx of neutrophils
adhesion/shape of fibroblasts on fibronectin-coated dishes [1]: rapidly induced the cultured fibroblasts to round up
fibroblasts remaining attached to the culture dish ([1]; 40 min incubation): very few fibroblasts remained attached
degradation of fibronectin in culture supernatants ([1]; SDS-PAGE/immunoblot analysis): degraded
